According to patent publication US20220089592A1, “IMIDAZO[1,2-A]PYRIDINYL DERIVATIVES AS IRAK4 INHIBITORS” (priority 2019, published 2022):

How the values were obtained:
IRAK4 [1] = target: T1, IRAK4 (Homo sapiens, UniProt Q9NWZ3); test: 2-hour 10 μM ATP Biochemical Assay (MesoScale Detection format; IRAK4 phosphorylation of biotin labeled IRAK1 activation loop peptide); settings: IRAK4 MSD BIOCHEMICAL (10 μM ATP) IC50 (μM), 1 nM IRAK4, 2 hours
T1 sequence (Q9NWZ3 1-460): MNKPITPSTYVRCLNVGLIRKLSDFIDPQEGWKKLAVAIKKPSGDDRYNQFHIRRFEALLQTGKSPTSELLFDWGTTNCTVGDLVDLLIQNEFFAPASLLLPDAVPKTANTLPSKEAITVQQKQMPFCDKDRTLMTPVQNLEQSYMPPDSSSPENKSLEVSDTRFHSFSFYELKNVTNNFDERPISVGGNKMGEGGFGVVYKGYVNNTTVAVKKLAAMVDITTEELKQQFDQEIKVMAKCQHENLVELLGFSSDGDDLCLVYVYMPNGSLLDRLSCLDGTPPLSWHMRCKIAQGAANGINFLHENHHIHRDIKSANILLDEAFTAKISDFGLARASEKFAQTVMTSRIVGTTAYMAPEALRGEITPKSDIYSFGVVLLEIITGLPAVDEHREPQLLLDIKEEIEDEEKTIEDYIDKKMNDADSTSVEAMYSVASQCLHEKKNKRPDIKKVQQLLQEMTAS
Procedure, shortened: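 Kinase reaction run 2 h at 10 μM ATP with biotinylated IRAK1 activation-loop peptide, quenched with EDTA. Phospho-peptide captured on streptavidin MSD plates and detected with anti-phosphothreonine rabbit antibody plus Sulfo-Tag anti-rabbit electrochemiluminescence.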

IRAK4 [2] = target: T1, IRAK4; test: 2-hour 1 mM ATP IRAK4 Biochemical assay (as above, but with 100 pM IRAK4 and 1 mM ATP); settings: IRAK4 MSD BIOCHEMICAL (1 mM ATP) IC50 (μM), 100 pM IRAK4, 2 hours
Procedure, shortened: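 Run with 100 pM IRAK4 and 1 mM ATP for 2 hours, quenched with EDTA pH 8. Phosphorylated biotinylated peptide captured on streptavidin MSD plates and detected with anti-phosphothreonine antibody plus Sulfo-Tag secondary by electrochemiluminescence.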

Compound	IC50 (IRAK4 [1]) [µM]	IC50 (IRAK4 [2]) [µM]
CCOc1cc2nc(C3CC3)cn2cc1NC(=O)c1cccc2c1OCC2 [Example 119, N-(2-cyclopropyl-7-ethoxyimidazo[1,2-a]pyridin-6-yl)-2,3-dihydrobenzofuran-7-carboxamide]	0.009	0.021
CCOc1cc2nc(CC3CCOC3)cn2cc1NC(=O)c1ccn(C(C)C)n1 (stereo not drawn) [Example 122, N-(7-ethoxy-2-((tetrahydrofuran-3-yl)methyl)imidazo[1,2-a]pyridin-6-yl)-1-isopropyl-1H-pyrazole-3-carboxamide]	0.008	0.003
CCOc1cc2nc(CC3CCOC3)cn2cc1NC(=O)c1ccn(CC(F)(F)F)n1 (stereo not drawn) [Example 123, N-(7-ethoxy-2-((tetrahydrofuran-3-yl)methyl)imidazo[1,2-a]pyridin-6-yl)-1-(2,2,2-trifluoroethyl)-1H-pyrazole-3-carboxamide]	0.008	0.014
CCOc1cc2nc(CC3CCOC3)cn2cc1NC(=O)c1ccn(C(F)F)n1 (stereo not drawn) [Example 124, 1-(difluoromethyl)-N-(7-ethoxy-2-((tetrahydrofuran-3-yl)methyl)imidazo[1,2-a]pyridin-6-yl)-1H-pyrazole-3-carboxamide]	0.002	0.002
CCOc1cc2nc(CC3CCOC3)cn2cc1NC(=O)c1ccn(CC(F)F)n1 (stereo not drawn) [Example 125, 1-(2,2-difluoroethyl)-N-(7-ethoxy-2-((tetrahydrofuran-3-yl)methyl)imidazo[1,2-a]pyridin-6-yl)-1H-pyrazole-3-carboxamide]	0.004	0.01
CCOc1cc2nc(C34CC(F)(C3)C4)cn2cc1NC(=O)c1cccc(C(F)F)n1 [Example 127, 6-(difluoromethyl)-N-(7-ethoxy-2-(3-fluorobicyclo[1.1.1]pentan-1-yl)imidazo[1,2-a]pyridin-6-yl)picolinamide]	0.001	0.003
CCOc1cc2nc(C3(OC)CC3)cn2cc1NC(=O)c1cccc(C(F)F)n1 [Example 128, 6-(difluoromethyl)-N-(7-ethoxy-2-(1-methoxycyclopropyl)imidazo[1,2-a]pyridin-6-yl)picolinamide]	0.002	0.007
CCOc1cc2nc(C34CC(CO)(C3)C4)cn2cc1NC(=O)c1cccc(C(F)F)n1 [Example 130, 6-(difluoromethyl)-N-(7-ethoxy-2-(3-(hydroxymethyl)bicyclo[1.1.1]pentan-1-yl)imidazo[1,2-a]pyridin-6-yl)picolinamide]	0.001	0.001
CCOc1cc2nc(C3CC3)cn2cc1NC(=O)c1cccc(N2CCOCC2)n1 [Example 131, N-(2-cyclopropyl-7-ethoxyimidazo[1,2-a]pyridin-6-yl)-6-morpholinopicolinamide]	0.005	0.044
CCOc1cc2nc(C3CCOCC3)cn2cc1NC(=O)c1cccc(OC)n1 [Example 133, N-(7-ethoxy-2-(tetrahydro-2H-pyran-4-yl)imidazo[1,2-a]pyridin-6-yl)-6-methoxypicolinamide]	0.002	0.004

Second part, the compound after the results:

IC50 (IRAK4 [1]) [µM]	IC50 (IRAK4 [2]) [µM]	Compound
0.002	0.009	CCOc1cc2nc(CC3CCOC3)cn2cc1NC(=O)c1cccc(OC)n1 (stereo not drawn) [Example 134, N-(7-ethoxy-2-((tetrahydrofuran-3-yl)methyl)imidazo[1,2-a]pyridin-6-yl)-6-methoxypicolinamide]
0.002	0.006	CCOc1cc2nc([C@H]3C[C@H](OC(C)C)C3)cn2cc1NC(=O)c1cccc(C(F)F)n1 [Example 135, 6-(difluoromethyl)-N-(7-ethoxy-2-((1r,3r)-3-isopropoxycyclobutyl)imidazo[1,2-a]pyridin-6-yl)picolinamide]
0.001	0.002	CCOc1cc2nc([C@H]3C[C@@H](OC(C)C)C3)cn2cc1NC(=O)c1cccc(C(F)F)n1 [Example 136, 6-(difluoromethyl)-N-(7-ethoxy-2-((1s,3s)-3-isopropoxycyclobutyl)imidazo[1,2-a]pyridin-6-yl)picolinamide]
0.011	0.051	CCOc1nc(NC(=O)c2cccc(OC)n2)cn2cc(C3CCOCC3)nc12 [Example 147, N-(8-ethoxy-2-(tetrahydro-2H-pyran-4-yl)imidazo[1,2-a]pyrazin-6-yl)-6-methoxypicolinamide]
0.002	0.003	CCOc1cc2nc(C(F)(F)CCOC)cn2cc1NC(=O)c1cccc(C(F)F)n1 [Example 149, N-(2-(1,1-difluoro-3-methoxypropyl)-7-ethoxyimidazo[1,2-a]pyridin-6-yl)-6-(difluoromethyl)picolinamide]
0.001	0.002	CCOc1cc2nc(C3CCSC3)cn2cc1NC(=O)c1cccc(C(F)F)n1 (stereo not drawn) [Example 150, 6-(difluoromethyl)-N-(7-ethoxy-2-(tetrahydrothiophen-3-yl)imidazo[1,2-a]pyridin-6-yl)picolinamide]
0.001	0.002	CCOc1cc2nc(CC3CCOCC3)cn2cc1NC(=O)c1cccc(C(F)F)n1 [Example 151, 6-(difluoromethyl)-N-(7-ethoxy-2-((tetrahydro-2H-pyran-4-yl)methyl)imidazo[1,2-a]pyridin-6-yl)picolinamide]
0.004	0.004	CCOc1cc2nc(C(C)(C)C#N)cn2cc1NC(=O)c1cccc(C(F)F)n1 [Example 152, N-(2-(2-cyanopropan-2-yl)-7-ethoxyimidazo[1,2-a]pyridin-6-yl)-6-(difluoromethyl)picolinamide]
0.001	0.001	CCOc1cc2nc(C34CC(OC)(C3)C4)cn2cc1NC(=O)c1cccc(C(F)F)n1 [Example 153, 6-(difluoromethyl)-N-(7-ethoxy-2-(3-methoxybicyclo[1.1.1]pentan-1-yl)imidazo[1,2-a]pyridin-6-yl)picolinamide]
0.005	0.016	CCOc1cc2nc(CC3CCOC3)cn2cc1NC(=O)c1ccn(C)n1 (stereo not drawn) [Example 155, N-(7-ethoxy-2-((tetrahydrofuran-3-yl)methyl)imidazo[1,2-a]pyridin-6-yl)-1-methyl-1H-pyrazole-3-carboxamide]
0.001	0.003	CCOc1cc2nc(C3CCN(C)C3=O)cn2cc1NC(=O)c1cccc(C(F)F)n1 (stereo not drawn) [Example 156, 6-(difluoromethyl)-N-(7-ethoxy-2-(1-methyl-2-oxopyrrolidin-3-yl)imidazo[1,2-a]pyridin-6-yl)picolinamide]
0.006	0.051	CCOc1cc2nc(CC3CCOC3)cn2cc1NC(=O)c1coc(C)n1 (stereo not drawn) [Example 159, N-(7-ethoxy-2-((tetrahydrofuran-3-yl)methyl)imidazo[1,2-a]pyridin-6-yl)-2-methyloxazole-4-carboxamide]
0.001	0.002	CCOc1cc2nc(C3(C#N)CCOCC3)cn2cc1NC(=O)c1cccc(C(F)F)n1 [Example 160, N-(2-(4-cyanotetrahydro-2H-pyran-4-yl)-7-ethoxyimidazo[1,2-a]pyridin-6-yl)-6-(difluoromethyl)picolinamide]
0.002	0.007	CC1(COc2cc3nc(CC4CCOC4)cn3cc2NC(=O)c2cccc(C(F)(F)F)n2)COC1 (stereo not drawn) [Example 163, N-(7-((3-methyloxetan-3-yl)methoxy)-2-((tetrahydrofuran-3-yl)methyl)imidazo[1,2-a]pyridin-6-yl)-6-(trifluoromethyl)picolinamide]
